Series [1] can be described thus: Human liver microsome (HLM) metabolic stability assay. The series is classed as in vitro ADME. Particulars: human liver microsomes. In short, it runs like this: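 Remaining parent measured by LC/MS/MS (ESI, MRM) at 5, 15, 30 and 60 min relative to 0 min. Incubation: 1 uM compound, HLMs, NADPH-started, 37° C., 60 min total, single replicate. Slope of ln(% remaining) gives t1/2 = 0.693/slope, then CLint, CLh and % Qh.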

Series [2] has as its target human soluble guanylate cyclase alpha 1 and beta 1 subunits (sGC) (Homo sapiens (Human), UniProt Q02108+Q02153). In words: sGC cellular activator assay (cGMP, HTRF), in the presence and absence of 50% human serum. The series is classed as cell-based. The note with it: CHO cells stably expressing human sGC alpha 1/beta 1, preincubated with 40 microM ODQ; cGMP by HTRF; Table 2 does not state whether with or without 50% human serum. The method, boiled down:
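First, CHO-sGC (human α1β1) cells get 1 h ODQ at 40 microM with IBMX and 0.1% BSA. Finally, cGMP is quantified by HTRF and EC50 computed.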
Background: TR-FRET usually uses a lanthanide donor and a delayed reading to cut background.

A short description of a further series: physchem. The note with it: kinetic from dmso stock.
Where [3] appears, read: pH 2.2, aqueous buffer, Solubility (pH 2.2).
The mark [4] stands for this setting: pH 4.5, aqueous buffer, Solubility (pH 4.5).
Setting [5] is: pH 6.8, aqueous buffer, Solubility (pH 6.8).

Values after ≈ are worked out from the molar mass of the structure shown. Where only a bound is given, the exact number is not on record here.

human soluble guanylate cyclase alpha 1 and beta 1 subunits (sGC), sequence (Q02108 whole entry partner): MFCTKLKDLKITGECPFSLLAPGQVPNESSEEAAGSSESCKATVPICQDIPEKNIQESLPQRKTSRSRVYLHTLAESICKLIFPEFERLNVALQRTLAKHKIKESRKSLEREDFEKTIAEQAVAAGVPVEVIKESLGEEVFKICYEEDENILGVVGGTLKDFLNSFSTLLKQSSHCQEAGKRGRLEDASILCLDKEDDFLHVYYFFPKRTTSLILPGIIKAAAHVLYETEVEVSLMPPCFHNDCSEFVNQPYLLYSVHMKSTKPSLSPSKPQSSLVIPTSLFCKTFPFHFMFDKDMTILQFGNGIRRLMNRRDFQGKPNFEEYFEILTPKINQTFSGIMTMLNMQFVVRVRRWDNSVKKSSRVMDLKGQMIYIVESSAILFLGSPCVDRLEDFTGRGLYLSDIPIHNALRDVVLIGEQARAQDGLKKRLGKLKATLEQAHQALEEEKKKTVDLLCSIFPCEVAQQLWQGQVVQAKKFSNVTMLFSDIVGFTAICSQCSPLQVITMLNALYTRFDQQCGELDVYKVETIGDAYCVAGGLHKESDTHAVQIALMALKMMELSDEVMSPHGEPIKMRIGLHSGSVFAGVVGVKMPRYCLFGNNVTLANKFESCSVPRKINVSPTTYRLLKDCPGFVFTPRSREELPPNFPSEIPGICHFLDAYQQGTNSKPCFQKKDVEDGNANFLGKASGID
human soluble guanylate cyclase alpha 1 and beta 1 subunits (sGC), sequence (Q02153 whole entry): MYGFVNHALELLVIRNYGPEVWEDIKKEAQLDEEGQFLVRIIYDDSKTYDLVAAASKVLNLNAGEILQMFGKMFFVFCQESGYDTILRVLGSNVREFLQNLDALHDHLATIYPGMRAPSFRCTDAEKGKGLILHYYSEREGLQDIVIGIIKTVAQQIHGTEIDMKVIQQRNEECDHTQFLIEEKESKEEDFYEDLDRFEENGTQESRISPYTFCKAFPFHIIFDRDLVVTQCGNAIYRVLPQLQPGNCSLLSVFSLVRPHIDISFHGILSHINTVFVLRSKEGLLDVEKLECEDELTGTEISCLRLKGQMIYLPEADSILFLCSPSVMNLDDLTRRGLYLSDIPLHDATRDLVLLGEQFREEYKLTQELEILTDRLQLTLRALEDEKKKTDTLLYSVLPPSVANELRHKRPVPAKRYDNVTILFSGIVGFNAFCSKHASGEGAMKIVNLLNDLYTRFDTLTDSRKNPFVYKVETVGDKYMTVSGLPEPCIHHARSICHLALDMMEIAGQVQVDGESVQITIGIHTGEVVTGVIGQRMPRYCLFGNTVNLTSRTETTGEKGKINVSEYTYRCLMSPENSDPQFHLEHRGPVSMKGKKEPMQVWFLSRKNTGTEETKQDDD

The EC50 is the concentration needed to bring the measured effect to its halfway point. The solubility is the dissolved amount per volume that the medium holds. For the molecule `COC[C@H]1N(c2cccc(-c3cccc(C)c3OCc3ccc4c(c3C)CCN(C3COC3)CC4)n2)C[C@@H]2C[C@@]21C(=O)O` [Compound 60], in series [1], the “Metabolic stability (Qh %), % hepatic blood flow” value (from here on “Metabolic stability (Qh %)”) was below 24%. In series [2], this molecule showed an EC50 of 0.006 µM. Further, the solubility at 24 h in the series “physchem” (setting [3]) is 0.12 mg/mL (≈ 206 µM); in the series “physchem” (setting [4]), 0.1 mg/mL (≈ 171 µM); in the series “physchem” (setting [5]) it was 0.079 mg/mL (≈ 135 µM).

In the case of `Cc1ccc(OCc2cc(C)c3c(c2C)CCN(C2CCCOC2)C3)c(-c2csc(N3CC[C@@]4(C(=O)O)C[C@H]4C3)n2)c1` (some centres unmarked) [Compound 128], in series [1], the “Metabolic stability (Qh %)” value is listed as below 24%. Moreover, the concentration giving a half-maximal response (EC50) in series [2] amounted to 0.009 µM. The solubility at 24 h was found to be 0.12 mg/mL (≈ 204 µM) in “physchem” (setting [3]), 0.0063 mg/mL (≈ 10.7 µM) in the series “physchem” (setting [4]) and 0.0003 mg/mL (≈ 0.51 µM) in “physchem” (setting [5]).

In the case of `COC[C@H]1N(c2cccc(-c3cccc(C)c3OCc3ccc4c(c3C)CCN(C3CCOCC3)C4)n2)C[C@@H]2C[C@@]21C(=O)O` [Compound 46], the “Metabolic stability (Qh %)” value in series [1] is recorded as below 24%. The EC50 in series [2] stood at 0.018 µM. In addition, the solubility at 24 h came to 0.11 mg/mL (≈ 184 µM) in “physchem” (setting [3]), 0.096 mg/mL (≈ 161 µM) in “physchem” (setting [4]) and 0.077 mg/mL (≈ 129 µM) in “physchem” (setting [5]).

Turning to `CO[C@@H]1CN(c2cccc(-c3cccc(C)c3OCc3ccc4c(c3C)CCN(C)CC4)n2)CC[C@@H]1C(=O)O` [Compound 300], in series [1], the “Metabolic stability (Qh %)” value is reported as below 24%. This molecule had a 50% effective concentration (EC50) in series [2] of 0.154 µM. In addition, the solubility at 24 h in the series “physchem” (setting [3]) worked out at 0.117 mg/mL (≈ 220 µM); in the series “physchem” (setting [4]) it was 0.0823 mg/mL (≈ 155 µM); in “physchem” (setting [5]), 0.0623 mg/mL (≈ 118 µM).

Take `CO[C@@H]1CN(c2cccc(-c3cccc(C)c3OCc3ccc4c(c3C)CCN(C3CCOCC3)C4)n2)CC[C@@H]1C(=O)O` [Compound 68]: the “Metabolic stability (Qh %)” value in series [1] was below 24%. In addition, in series [2], the EC50 was 0.014 µM. The figures for the solubility at 24 h in the series “physchem” (setting [3]), in “physchem” (setting [4]) and in “physchem” (setting [5]) were 0.14 mg/mL (≈ 239 µM), 0.12 mg/mL (≈ 205 µM) and 0.093 mg/mL (≈ 159 µM), respectively.

On to `Cc1cccc(-c2cccc(N3CC[C@H](C(=O)O)[C@@H]4OCCC[C@H]43)n2)c1OCc1ccc2c(c1C)CCN(C1CCOCC1)CC2` [Compound 337], for which, in series [1], the “Metabolic stability (Qh %)” value was below 24%. Further, the midpoint of the response in series [2], the EC50, lay at 0.13 µM. For the same molecule, the solubility at 24 h in the series “physchem” (setting [3]) was 0.113 mg/mL (≈ 181 µM); in the series “physchem” (setting [4]), 0.0805 mg/mL (≈ 129 µM); in the series “physchem” (setting [5]) it was 0.078 mg/mL (≈ 125 µM).

Turning to `CO[C@@H]1CN(c2nc(-c3cccc(C)c3OCc3ccc4c(c3C)CCN(C3COC3)C4)cs2)CC[C@@H]1C(=O)O` [Compound 174], the “Metabolic stability (Qh %)” value in series [1] is given as below 24%. Also, the EC50 in series [2] came to 0.044 µM. Besides, the solubility at 24 h in the series “physchem” (setting [3]) is 0.12 mg/mL (≈ 213 µM); in “physchem” (setting [4]), 0.079 mg/mL (≈ 140 µM); in “physchem” (setting [5]), 0.083 mg/mL (≈ 147 µM).

In the case of `Cc1ccc(OCc2ccc3c(c2C)CCN(C2CCCOC2)C3)c(-c2csc(N3CC[C@@]4(C(=O)O)C[C@H]4C3)n2)c1` (some centres unmarked) [Compound 118], the “Metabolic stability (Qh %)” value in series [1] came to 34%. In series [2], this molecule came in with a concentration for a half-maximal effect (EC50) of 0.004 µM. For the same molecule, the solubility at 24 h was 0.12 mg/mL (≈ 209 µM) in “physchem” (setting [3]), 0.021 mg/mL (≈ 36.6 µM) in the series “physchem” (setting [4]) and below 0.0001 mg/mL in “physchem” (setting [5]).

With `Cc1cc(C)c(OCc2ccc3c(c2)CCN(C2CCOCC2)C3)c(-c2csc(N3C[C@@H]4C[C@]4(C(=O)O)C3)n2)c1` [Compound 151], in series [1], the “Metabolic stability (Qh %)” value is below 24%. The EC50 in series [2] was determined as 0.135 µM. Besides, the solubility at 24 h in “physchem” (setting [3]) was determined as 0.11 mg/mL (≈ 197 µM); in the series “physchem” (setting [4]) it was 0.071 mg/mL (≈ 127 µM); in the series “physchem” (setting [5]), 0.054 mg/mL (≈ 96.5 µM).

Take `CO[C@H]1CN(c2cccc(-c3cccc(C)c3OCc3ccc4c(c3C)CCN(C3COC3)CC4)n2)CC[C@@H]1C(=O)O` [Compound 289]: the “Metabolic stability (Qh %)” value in series [1] is given as below 24%. The molecule further displayed a concentration for a half-maximal effect (EC50) in series [2] of 0.235 µM. Moreover, the results for the solubility at 24 h in the series “physchem” (setting [3]), in “physchem” (setting [4]) and in “physchem” (setting [5]) were 0.123 mg/mL (≈ 215 µM), 0.0824 mg/mL (≈ 144 µM) and 0.0699 mg/mL (≈ 122 µM), respectively.

On to `Cc1cccc(-c2cccc(N3C[C@@H]4C[C@]4(C(=O)O)C3)n2)c1OCc1ccc2c(c1C)CCN(C1COC1)CC2` [Compound 34], for which the “Metabolic stability (Qh %)” value in series [1] is on record as below 24%. In addition, the EC50 in series [2] was found to be 0.002 µM. Besides, the figures for the solubility at 24 h in the series “physchem” (setting [3]), in the series “physchem” (setting [4]) and in the series “physchem” (setting [5]) were 0.11 mg/mL (≈ 204 µM), 0.097 mg/mL (≈ 180 µM) and 0.067 mg/mL (≈ 124 µM), respectively.

As for `Cc1c(COc2ccccc2-c2ccnc(N3C[C@@H]4C[C@]4(C(=O)O)C3)n2)ccc2c1CCN(C1CCOCC1)C2` [Compound 188], in series [1], the “Metabolic stability (Qh %)” value is given as below 24%. In series [2], this molecule gave an EC50 of 0.15 µM. Also, the solubility at 24 h was 0.11 mg/mL (≈ 203 µM) in “physchem” (setting [3]), 0.05 mg/mL (≈ 92.5 µM) in the series “physchem” (setting [4]) and 0.054 mg/mL (≈ 99.9 µM) in the series “physchem” (setting [5]).

In the case of `COc1cc(COc2c(C)cccc2-c2csc(N3CC[C@@H](C(=O)O)[C@@H](OC)C3)n2)cc2c1CN(C1CCOCC1)CC2` [Compound 171], in series [1], the “Metabolic stability (Qh %)” value is listed as below 24%. A half-maximal effect in series [2] (EC50) was put at 0.01 µM. In addition, the solubility at 24 h is 0.14 mg/mL (≈ 230 µM) in “physchem” (setting [3]), 0.1 mg/mL (≈ 165 µM) in “physchem” (setting [4]) and 0.099 mg/mL (≈ 163 µM) in “physchem” (setting [5]).

Take `Cc1cc(COc2c(C)cccc2-c2csc(N3C[C@@H]4C[C@]4(C(=O)O)C3)n2)cc2c1CN(C1COC1)CC2` [Compound 139]: the “Metabolic stability (Qh %)” value in series [1] was below 24%. A half-maximal response in series [2] (EC50) required 0.007 µM. Further, the solubility at 24 h in the series “physchem” (setting [3]) is 0.096 mg/mL (≈ 181 µM); in “physchem” (setting [4]), 0.058 mg/mL (≈ 109 µM); in the series “physchem” (setting [5]), 0.059 mg/mL (≈ 111 µM).

With `CO[C@H]1CN(c2cccc(-c3cc(C)ccc3OCc3ccc4c(c3)CCN(C3CCOCC3)C4)n2)CC[C@H]1C(=O)O` [Compound 70], the “Metabolic stability (Qh %)” value in series [1] is on record as below 24%. Further, the EC50 in series [2] was 0.12 µM. Also, the solubility at 24 h in “physchem” (setting [3]) is 0.13 mg/mL (≈ 227 µM); in the series “physchem” (setting [4]) it was 0.12 mg/mL (≈ 210 µM); in “physchem” (setting [5]) it was 0.083 mg/mL (≈ 145 µM).

Regarding `Cc1ccc(OCc2ccc3c(c2)CCN(C2CCOCC2)C3=O)c(-c2csc(N3CC[C@@]4(C(=O)O)C[C@H]4C3)n2)c1` [Compound 192, (1R,6S)-3-(4-{5-Methyl-2-[1-oxo-2-(tetrahydro-pyran-4-yl)-1,2,3,4-tetrahydro-isoquinolin-6-ylmethoxy]-phenyl}-thiazol-2-yl)-3-aza-bicyclo[4.1.0]heptane-6-carboxylic acid], the “Metabolic stability (Qh %)” value in series [1] was below 24%. Also, in series [2], a half-maximal effect (EC50) was put at 0.029 µM. Moreover, the solubility at 24 h in “physchem” (setting [3]) is 0.048 mg/mL (≈ 83.7 µM); in “physchem” (setting [4]), below 0.0001 mg/mL; in the series “physchem” (setting [5]) it was 0.0092 mg/mL (≈ 16 µM).

As to `CO[C@H]1CN(c2nc(-c3cccc(Cl)c3OCc3ccc4c(c3)[C@@H](C)CN(C3COC3)CC4)cs2)CC[C@H]1C(=O)O` [Compound 321], the “Metabolic stability (Qh %)” value in series [1] was 47%. The molecule further came in with an EC50 in series [2] of 0.003 µM. The solubility at 24 h was 0.112 mg/mL (≈ 187 µM) in the series “physchem” (setting [3]), 0.0415 mg/mL (≈ 69.4 µM) in “physchem” (setting [4]) and 0.0505 mg/mL (≈ 84.4 µM) in “physchem” (setting [5]).

Consider `CO[C@H]1CN(c2nc(-c3cc(C)ccc3OCc3ccc4c(c3C)CCN(C3CCOCC3)C4=O)cs2)CC[C@H]1C(=O)O` [Compound 203], for which the “Metabolic stability (Qh %)” value in series [1] was below 24%. In series [2], this molecule came in with an EC50 of 0.033 µM. The solubility at 24 h in the series “physchem” (setting [3]) amounted to 0.0568 mg/mL (≈ 93.8 µM); in the series “physchem” (setting [4]), 0.0001 mg/mL (≈ 0.165 µM); in the series “physchem” (setting [5]), 0.0016 mg/mL (≈ 2.64 µM).

`Cc1ccc(OCc2cc(C)c3c(c2C)CCN(CC2COCCO2)C3)c(-c2csc(N3CC[C@@]4(C(=O)O)C[C@H]4C3)n2)c1` (some centres unmarked) [Compound 127]: in series [1], the “Metabolic stability (Qh %)” value is recorded as below 24%. This molecule registered an EC50 in series [2] of 0.003 µM. Besides, the solubility at 24 h in “physchem” (setting [3]) turned out to be 0.13 mg/mL (≈ 215 µM); in the series “physchem” (setting [4]), 0.017 mg/mL (≈ 28.2 µM); in the series “physchem” (setting [5]), 0.00077 mg/mL (≈ 1.28 µM).

These data come from US9353090B2, “Heterocyclic carboxylic acids as activators of soluble guanylate cyclase” (Boehringer Ingelheim International GmbH, priority 2014, dated 2016).
